# Experimental data published in US20200172966A1 (YAMAGUCHI UNIVERSITY, priority 2015, published 2020).
# Experiment: incidence of side effect (hematologic toxicity) by single nucleotide polymorphism genotype in Japanese patients with colon cancer who had received irinotecan
# Type: in vivo, human
# Procedure: By using TaqMan SNP Assays Human (manufactured by Applied Biosystems, Inc.) and LightCycler (R) 480 Probe Master (manufactured by Roche Diagnostics, Inc.), Universal ProbeLibrary (manufactured by Roche Diagnostics, Inc.), and LightCycler 480 System II (manufactured by Roche Diagnostics, Inc.), 10 ng of genomic DNA was subjected to genotyping. After incubation at 95° C. for 10 min, the sample was subjected to PCR amplification with 55 cycles for rs1980576, rs2272761, and rs9425343, 45 cycles for rs12577167, rs7265854, and rs1135640, or 40 cycles for rs1547 (1 cycle consisted of 92° C. for 15 sec and 60° C. for 60 sec). The fluorescence emitted from the PCR products were measured.
# The “Odds ratio” in Table 3 refers to an odds ratio indicating the occurrence of a side effect as calculated using a Fisher's exact test on a single nucleotide polymorphism being homozygous for a wild-type or homozygous for a variant type.
# The term (P value/C.-A.) in Table 4 is the same as in Table 2. […] The term “Odds ratio” in Table 5 is the same as in Table 3.
# [1] = N = 72, homozygous UGT1A1*28 excluded (Table 5), ACOX1 rs1135640 G/G
# [2] = N = 72, homozygous UGT1A1*28 excluded, ACOX1 rs1135640 C/C, C/G
# [3] = N = 72, homozygous UGT1A1*28 excluded, APCDD1L rs1980576 A/A
# [4] = N = 72, homozygous UGT1A1*28 excluded, APCDD1L rs1980576 A/A, A/G
# [5] = N = 72, homozygous UGT1A1*28 excluded, APCDD1L rs1980576 A/G, G/G
# [6] = N = 72, homozygous UGT1A1*28 excluded, APCDD1L rs1980576 G/G
# [7] = N = 72, homozygous UGT1A1*28 excluded, APCDD1L rs7265854 C/C
# [8] = N = 72, homozygous UGT1A1*28 excluded, APCDD1L rs7265854 T/T, T/C
# [9] = N = 72, homozygous UGT1A1*28 excluded, EDEM3 rs9425343 T/G, G/G
# [10] = N = 72, homozygous UGT1A1*28 excluded, EDEM3 rs9425343 T/T
# [11] = N = 72, homozygous UGT1A1*28 excluded, R3HCC1 rs2272761 G/A, A/A
# [12] = N = 72, homozygous UGT1A1*28 excluded, R3HCC1 rs2272761 G/G
# [13] = N = 72, homozygous UGT1A1*28 with reduced amount of irinotecan excluded (Table 4), ACOX1 rs1135640 C/C
# [14] = N = 72, homozygous UGT1A1*28 with reduced amount of irinotecan excluded (Table 4), ACOX1 rs1135640 C/G
# [15] = N = 72, homozygous UGT1A1*28 with reduced amount of irinotecan excluded (Table 4), ACOX1 rs1135640 G/G
# [16] = N = 73, homozygous UGT1A1*28 with reduced amount of irinotecan excluded, APCDD1L rs1980576 A/A
# [17] = N = 73, homozygous UGT1A1*28 with reduced amount of irinotecan excluded, APCDD1L rs1980576 A/G
# [18] = N = 73, homozygous UGT1A1*28 with reduced amount of irinotecan excluded, APCDD1L rs1980576 G/G
# [19] = N = 73, homozygous UGT1A1*28 with reduced amount of irinotecan excluded, APCDD1L rs7265854 A/A
# [20] = N = 73, homozygous UGT1A1*28 with reduced amount of irinotecan excluded, APCDD1L rs7265854 A/G
# [21] = N = 73, homozygous UGT1A1*28 with reduced amount of irinotecan excluded, APCDD1L rs7265854 G/G
# [22] = N = 73, homozygous UGT1A1*28 with reduced amount of irinotecan excluded, CSMD2 rs474474 A/A
# [23] = N = 73, homozygous UGT1A1*28 with reduced amount of irinotecan excluded, CSMD2 rs474474 A/G
# [24] = N = 73, homozygous UGT1A1*28 with reduced amount of irinotecan excluded, CSMD2 rs474474 G/G
# [25] = N = 73, homozygous UGT1A1*28 with reduced amount of irinotecan excluded, EDEM3 rs9425343 G/G
# [26] = N = 73, homozygous UGT1A1*28 with reduced amount of irinotecan excluded, EDEM3 rs9425343 T/G
# [27] = N = 73, homozygous UGT1A1*28 with reduced amount of irinotecan excluded, EDEM3 rs9425343 T/T
# [28] = N = 73, homozygous UGT1A1*28 with reduced amount of irinotecan excluded, GATA2 rs2335052 A/A
# [29] = N = 73, homozygous UGT1A1*28 with reduced amount of irinotecan excluded, GATA2 rs2335052 G/A
# [30] = N = 73, homozygous UGT1A1*28 with reduced amount of irinotecan excluded, GATA2 rs2335052 G/G
# [31] = N = 73, homozygous UGT1A1*28 with reduced amount of irinotecan excluded, MKKS rs1547 C/C
# [32] = N = 73, homozygous UGT1A1*28 with reduced amount of irinotecan excluded, MKKS rs1547 C/T
# [33] = N = 73, homozygous UGT1A1*28 with reduced amount of irinotecan excluded, MKKS rs1547 T/T
# [34] = N = 73, homozygous UGT1A1*28 with reduced amount of irinotecan excluded, OR51I2 rs12577167 A/A
# [35] = N = 73, homozygous UGT1A1*28 with reduced amount of irinotecan excluded, OR51I2 rs12577167 A/G
# [36] = N = 73, homozygous UGT1A1*28 with reduced amount of irinotecan excluded, OR51I2 rs12577167 G/G
# [37] = N = 73, homozygous UGT1A1*28 with reduced amount of irinotecan excluded, R3HCC1 rs2272761 A/A
# [38] = N = 73, homozygous UGT1A1*28 with reduced amount of irinotecan excluded, R3HCC1 rs2272761 G/A
# [39] = N = 73, homozygous UGT1A1*28 with reduced amount of irinotecan excluded, R3HCC1 rs2272761 G/G
smiles,measurement,setting,value
"CCc1c2c(nc3ccc(OC(=O)N4CCC(N5CCCCC5)CC4)cc13)-c1cc3c(c(=O)n1C2)COC(=O)[C@]3(O)CC [irinotecan, 1,4′-Bipiperidine-1′-carboxylic acid (S)-4,11-diethyl-3,4,12,14-tetrahydro-4-hydroxy-3,14-dioxo-1H-pyrano[3′,4′:6,7]indolizino[1,2-b]quinolin-9-yl ester]",Toxicity No,[1],21
same,Toxicity Yes,[1],8
same,Toxicity No,[2],17
same,Toxicity Yes,[2],26
same,Toxicity No,[3],16
same,Toxicity Yes,[3],6
same,Toxicity No,[4],35
same,Toxicity Yes,[4],26
same,Toxicity No,[5],22
same,Toxicity Yes,[5],28
same,Toxicity No,[6],3
same,Toxicity Yes,[6],8
same,Toxicity No,[7],8
same,Toxicity Yes,[7],1
same,Toxicity No,[8],30
same,Toxicity Yes,[8],33
same,Toxicity No,[9],31
same,Toxicity Yes,[9],21
same,Toxicity No,[10],7
same,Toxicity Yes,[10],13
same,Toxicity No,[11],32
same,Toxicity Yes,[11],34
same,Toxicity No,[12],6
same,Toxicity Yes,[12],0
same,Toxicity No,[13],3
same,Toxicity Yes,[13],8
same,Toxicity No,[14],14
same,Toxicity Yes,[14],18
same,Toxicity No,[15],21
same,Toxicity Yes,[15],8
same,Toxicity No,[16],16
same,Toxicity Yes,[16],6
same,Toxicity No,[17],20
same,Toxicity Yes,[17],20
same,Toxicity No,[18],3
same,Toxicity Yes,[18],8
same,Toxicity No,[19],13
same,Toxicity Yes,[19],18
same,Toxicity No,[20],18
same,Toxicity Yes,[20],15
same,Toxicity No,[21],8
same,Toxicity Yes,[21],1
same,Toxicity No,[22],16
same,Toxicity Yes,[22],22
same,Toxicity No,[23],18
same,Toxicity Yes,[23],8
same,Toxicity No,[24],5
same,Toxicity Yes,[24],4
same,Toxicity No,[25],10
same,Toxicity Yes,[25],5
same,Toxicity No,[26],21
same,Toxicity Yes,[26],16
same,Toxicity No,[27],8
same,Toxicity Yes,[27],13
same,Toxicity No,[28],5
same,Toxicity Yes,[28],5
same,Toxicity No,[29],20
same,Toxicity Yes,[29],12
same,Toxicity No,[30],14
same,Toxicity Yes,[30],17
same,Toxicity No,[31],20
same,Toxicity Yes,[31],10
same,Toxicity No,[32],16
same,Toxicity Yes,[32],19
same,Toxicity No,[33],3
same,Toxicity Yes,[33],5
same,Toxicity No,[34],19
same,Toxicity Yes,[34],23
same,Toxicity No,[35],14
same,Toxicity Yes,[35],10
same,Toxicity No,[36],6
same,Toxicity Yes,[36],1
same,Toxicity No,[37],22
same,Toxicity Yes,[37],24
same,Toxicity No,[38],11
same,Toxicity Yes,[38],10
same,Toxicity No,[39],6
same,Toxicity Yes,[39],0
same,irinotecan side effect observed,of 68 cases considered to have a low risk of a side effect in view of the UGT1A gene polymorphisms,29 cases
